Experimental data from patent US6461545B1, “Method of solubilizing and encapsulating itraconazole” (Emisphere Technologies, Inc., priority 1995, dated 2002).

Assays:
[1] = cited from earlier work
[2] = Solubilization of itraconazole in aqueous acetic acid solutions, visually monitored for dissolution (Example 1); assay type: physicochemical; conditions: 100 mg itraconazole
Experimental: Acetic acid solutions were prepared in water to 10%, 20%, 50% and 75% concentrations (expressed as volume glacial acetic acid/total volume of solution ×100). 100 mg itraconazole solute were then mixed independently with 1 ml of each solution and visually monitored for dissolution. If necessary, additional 1 ml aliquots of each acetic acid solution were added until the itraconazole solute was dissolved.

For CCC(C)n1ncn(-c2ccc(N3CCN(c4ccc(OCC5COC(Cn6cncn6)(c6ccc(Cl)cc6Cl)O5)cc4)CC3)cc2)c1=O (racemic) [itraconazole], the solubility in water [1] is given as “less than 0.00001 g/ml”, the Solubility ([2]; 10% acetic acid v:v, 1 ml solvent, cold) is given as “Ins” and the Solubility ([2]; 10% acetic acid v:v, 1 ml solvent, hot) is given as “Ins”. For the same compound, the Solubility ([2]; 10% acetic acid v:v, 2 ml solvent, cold) was “Ins”, the Solubility ([2]; 10% acetic acid v:v, 2 ml solvent, hot) was “Ins” and the Solubility ([2]; 10% acetic acid v:v, 3 ml solvent, cold) was “Ins”. For the same compound, the Solubility ([2]; 10% acetic acid v:v, 3 ml solvent, hot) was “Ins”, the Solubility ([2]; 10% acetic acid v:v, 4 ml solvent, hot) was “Ins” and the Solubility ([2]; 20% acetic acid v:v, 1 ml solvent, cold) was “Ins”. For the same compound, the Solubility ([2]; 20% acetic acid v:v, 1 ml solvent, hot) was “Ins”, the Solubility ([2]; 20% acetic acid v:v, 2 ml solvent, cold) was “Ins” and the Solubility ([2]; 20% acetic acid v:v, 2 ml solvent, hot) was “Ins”. For the same compound, the Solubility ([2]; 20% acetic acid v:v, 3 ml solvent, cold) was “Ins”, the Solubility ([2]; 20% acetic acid v:v, 3 ml solvent, hot) was “Part” and the Solubility ([2]; 50% acetic acid v:v, 1 ml solvent, cold) was “Ins”. The Solubility ([2]; 50% acetic acid v:v, 1 ml solvent, hot) was “Ins”, the Solubility ([2]; 50% acetic acid v:v, 2 ml solvent, cold) was “Ins” and the Solubility ([2]; 50% acetic acid v:v, 2 ml solvent, hot) was “Sol”. The Solubility ([2]; 50% acetic acid v:v, 3 ml solvent, cold) was “Ins” and the Solubility ([2]; 75% acetic acid v:v, 1 ml solvent, cold) was “Sol”.
